Data set [1] relates to epidermoid carcinoma of the nasopharynx (KB). Put plainly: Cytotoxicity Assays Method C, KB. The format is cell-based. The note with it: read-out: IC50 KB.
Data set [2] deals with ileocecal carcinoma (HCT-8). Description: Cytotoxicity Assays Method C, HCT-8. The class given is cell-based. The note with it: read-out: IC50 HCT-8.
Data set [3] concerns prostate cancer (PC-3). Put plainly: Cytotoxicity Assays Method C, PC-3. The format is cell-based. The note with it: for pIC50: read-out: IC50 PC-3; for activity against the androgen-insensitive prostate cancer cell line PC-3 (in words): PC-3, summary of Table 3.
The subject of data set [4] is p-gp-expressing epidermoid carcinoma of the nasopharynx (KB-VIN). Description: Cytotoxicity Assays Method C, KB-VIN. The format is cell-based. The note with it: for pIC50: 50% reduction in cell number after 72 hr of incubation; for activity against the MDR cell line KB-VIN (in words): summary of Table 3. From the text:
Cytotoxicity Assays Method C (KB, KB-VIN, AS49, HCT-8, PC-3) [K. H. Lee et. al. Planta Med. 54, 308-312 (1998), Monk A et. al. J. Natl. Cancer Inst. 83, 757-766 (1991).] The cell lines included epidermoid caninoma of the nasopharynx (KB), p-gp-expressing epidermoid caninoma of the nasopharynx (KB-VIN), lung carcinoma (A-549), ileocecal carinoma (HCT-8) and prostate cancer (PC-3) cell lines.

Data set [5] can be described thus: Water solubility. The format is physicochemical. The note with it: water; in H2O.
For data set [6], the system named is lung carcinoma (A-549). Description: Cytotoxicity Assays Method C, A-549. The format is cell-based. The note with it: read-out: IC50 A549.
The test system of data set [7] is Human promyeloid leukemia HL-60 cells. Description: Cytotoxicity Assays Method B (MTT proliferation assay), HL-60. The format is cell-based. The note with it: for pIC50: Homo sapiens, read-out: IC50 (concentration at which 50% of the cells are inhibited from growing). The procedure:
Cytotoxicity Assays Method B (HL-60) [H. M. Chen et al. Chin. Pharm. J. 53, 157-167 (2001)]
Human promyeloid leukemia HL-60 cells were obtained from the American Type
Culture Collection (Manassas, Va., USA) and the Culture Collection and Research Center(CCRC) (Tai wan, ROC). Human promyeloid leukemia HL-60 cells were cultured in suspension in RPMI-1640 medium (GIBCO, Grand Is land, USA), containing 10% fetal bovine se rum (GIBCO, Grand Is land, USA), 100 unit/mL penicillin, […] streptomycin and 1% L-glutamine at 37° C. in a humidified atmosphere of 5% CO2 in air. Cells were split every day to maintain the cell numbers between 2−5×10^5/mL. Cell numbers were assessed by the standard procedure of leukocyte counting using a hemocytometer and cell viability was checked by the ability of cells to exclude Trypan blue.
Cellular proliferation was determined by the MTT [3-(4,5-dimethylthiazol-2-yl)-2,5-diphenyltetrazolium bromide] as say. Briefly, […] of MTT (5 mg/mL) was added to each well of 96-well plates containing 1×10^5 cells after treatment with different concentrations of samples for 4 days. The reaction was stopped after 2 h by adding […] of 0.04 N HCl in isopropanol and the OD570 nm was determined by a minicolorimetric reader. Each concentration treatment was performed in triplicate.

Where [8] appears, read: 72 h, KB, 50% reduction in cell number after 72 hr of incubation.
Where [9] appears, read: Homo sapiens, HCT-8, 72 h, HCT-8, 50% reduction in cell number after 72 hr of incubation.
[10] abbreviates: 72 h, PC-3, 50% reduction in cell number after 72 hr of incubation.
Setting [11] is: Homo sapiens, A549, 72 h, A549, 50% reduction in cell number after 72 hr of incubation.
[12] abbreviates: 96 h, HL-60, MTT, treatment for 4 days.
Setting [13] is: KB, 50% reduction in cell number after 72 hr of incubation.
[14] abbreviates: PC-3, 50% reduction in cell number after 72 hr of incubation.
[15] abbreviates: A549, 50% reduction in cell number after 72 hr of incubation.
[16] abbreviates: HCT-8, 50% reduction in cell number after 72 hr of incubation.

pIC50: −log10 of the molar value. Counter-ions that a name gives are not always drawn. Like-named read-outs stand apart in the source and are kept apart here. Some results are limits rather than exact numbers.

A word on the solubility: it is the dissolved amount per volume that the medium holds. High values mean much dissolved substance, low ones little dissolved substance. Consider `O=C([O-])CCCC(=O)OCc1cc2c(s1)C(=O)c1sccc1C2=O.[Na+]` [IIa-2-Na, Sodium mono-[1-(4,8-dioxo-4,8-dihydrobenzo[1,2-b:5,4-b′]dithiophen-2-yl)methyl]pentanedioate], for which the pIC50 was 5.76 in data set [1] (setting [8]); 6.19 in data set [2] (setting [9]); 6.05 in data set [3] (setting [10]); 5.88 in data set [4]; 6.03 in data set [6] (setting [11]). In data set [5], the solubility was no less than 1800 µg/mL.
Take `CC(OC(=O)CCC(=O)[O-])c1cc2c(s1)C(=O)c1sccc1C2=O.[Na+]` (stereo not shown) [IIb-1-Na, Sodium mono-[1-(4,8-dioxo-4,8-dihydroxybenzo-[1,2-b;5,4-b′]dithiophen-2-yl)-ethyl]succinate]: the pIC50 is 6.26 in data set [1] (setting [8]); 5.74 in data set [2] (setting [9]); 6.43 in data set [3] (setting [10]); 6.33 in data set [4]; 6.33 in data set [6] (setting [11]). Further, the solubility in data set [5] was no less than 3000 µg/mL.
For the compound `CC(OC(=O)CCCC(=O)O)c1cc2c(s1)C(=O)c1sccc1C2=O` (stereo not shown) [IIb-2, Mono-[1-(4,8-dioxo-4,8-dihydrobenzo[1,2-b:5,4-b′]dithiophen-2-yl)-ethyl]pentanedioate], the pIC50 in data set [7] (HL-60, 96 h) was 6.60; in data set [1] (72 h) it was 7.52; in data set [2] (Homo sapiens, HCT-8, 72 h), 6.72; in data set [3] (72 h), 7.22; in data set [4], 7.30; in data set [6] (Homo sapiens, A549, 72 h) it was 6.96. In data set [3], the “activity against the androgen-insensitive prostate cancer cell line PC-3 (in words)” value is “potent activity”. For the same compound, the “activity against the MDR cell line KB-VIN (in words)” value in data set [4] is “potent activity”.
As for `CC(OC(=O)CCCC(=O)[O-])c1cc2c(s1)C(=O)c1sccc1C2=O.[Na+]` (stereo not shown) [IIb-2-Na, Sodium mono-[1-(4,8-dioxo-4,8-dihydroxybenzo[1,2-b;5,4-b′]dithiophen-2-yl)-ethyl]pentanedioate], the pIC50 in data set [1] (setting [8]) was 5.87; in data set [2] (setting [9]), 5.72; in data set [3] (setting [10]) it was 6.06; in data set [4], 5.95; in data set [6] (setting [11]), 5.72. In data set [5], this compound yielded a solubility of no less than 9600 µg/mL.
For the compound `CC(OCC(=O)O)c1cc2c(s1)C(=O)c1ccsc1C2=O` (stereo not shown) [IX, 1-(4,8-Dioxo-4,8-dihydroxybenzo[1,2-b:4,5-b′]-dithiophen-2-yl-ethoxy)-acetic acid], the pIC50 was 5.59 in data set [7] (setting [12]); 4.70 in data set [1] (setting [13]); 6.62 in data set [2] (setting [9]); 5.60 in data set [3] (setting [14]); 4.74 in data set [4]; 5.59 in data set [6] (setting [15]).
In the case of `CC(OCC(=O)[O-])c1cc2c(s1)C(=O)c1ccsc1C2=O.[Na+]` (stereo not shown) [IX-Na, Sodium 1-(4,8-dioxo-4,8-dihydroxybenzo[1,2-b:4,5-b′]-dithiophen-2-yl-ethoxy)-acetate], the pIC50 in data set [1] (setting [13]) was 5.95; in data set [2] (setting [16]) it was 6.66; in data set [3] (setting [14]) it was 6.85; in data set [4], 6.00; in data set [6] (setting [15]) it was 6.59. In addition, in data set [5], the solubility is no less than 6000 µg/mL.
For the compound `CC(OC(=O)CCC(=O)[O-])c1cc2c(s1)C(=O)c1ccsc1C2=O.[Na+]` (stereo not shown) [VII-1-Na, Sodium mono-[1-(4,8-dioxo-4,8-dihydroxybenzo-[1,2-b;4,5-b′]dithiophen-2-yl)-ethyl]succinate], the pIC50 is 5.67 in data set [1] (setting [8]); 5.84 in data set [2] (setting [9]); 6.14 in data set [3] (setting [10]); 5.71 in data set [4]; 5.65 in data set [6] (setting [11]). Also, in data set [5], the solubility is no less than 10000 µg/mL.
On to `CC(OC(=O)CCCC(=O)O)c1cc2c(s1)C(=O)c1ccsc1C2=O` (stereo not shown) [VII-2, Mono-[1-(4,8-dioxo-4,8-dihydroxybenzo[1,2-b;4,5-b′]dithiophen-2-yl)-ethyl]pentanedioate], for which the pIC50 was 6.55 in data set [7] (setting [12]); 7.10 in data set [1] (72 h); 6.32 in data set [2] (Homo sapiens, HCT-8, 72 h); 7.22 in data set [3] (72 h); 6.62 in data set [4]; 6.29 in data set [6] (Homo sapiens, A549, 72 h). Besides, the “activity against the androgen-insensitive prostate cancer cell line PC-3 (in words)” value in data set [3] is “potent activity”. For the same compound, the “activity against the MDR cell line KB-VIN (in words)” value in data set [4] is “potent activity”.
In the case of `CC(OC(=O)CCCC(=O)[O-])c1cc2c(s1)C(=O)c1ccsc1C2=O.[Na+]` (stereo not shown) [VII-2-Na, Sodium mono-[1-(4,8-dioxo-4,8-dihydroxybenzo[1,2-b;4,5-b′]dithiophen-2-yl)-ethyl]pentanedioate], the pIC50 in data set [1] (setting [8]) is 6.35; in data set [2] (setting [9]) it was 6.06; in data set [3] (setting [10]) it was 7.00; in data set [4], 6.17; in data set [6] (setting [11]) it was 5.60. The solubility in data set [5] was no less than 3400 µg/mL.
In the case of `O=C(O)c1cc2c(s1)C(=O)c1sccc1C2=O` [XI-NH4, Ammonium 4,8-dioxo-4,8-dihydrobenzo-[1,2-b:5,4-b′]dithiophene-2-carboxylate], the pIC50 is 4.44 in data set [1] (setting [13]); less than 4.15 in data set [2] (setting [16]); less than 4.15 in data set [3] (setting [14]); 4.44 in data set [4]; less than 4.15 in data set [6] (setting [15]). Besides, the solubility in data set [5] is no less than 10000 µg/mL.
Consider `O=C(O)c1cc2c(s1)C(=O)c1ccsc1C2=O` [XIV-NH4, Ammonium 4,8-dioxo-4,8-dihydrobenzo-[1,2-b;4,5-b′]dithiophene-2-carboxylate], for which the pIC50 in data set [1] (setting [13]) is 4.44; in data set [2] (setting [16]), 4.58; in data set [3] (setting [14]), 4.88; in data set [4] it was 4.44; in data set [6] (setting [15]), 4.79. The solubility in data set [5] worked out at 4000 µg/mL.
As for `CN(C)CCNC(=O)c1cc2c(s1)C(=O)c1ccsc1C2=O` [XV-2-H3PO4, 4,8-dioxo-4,8-dihydrobenzo[1,2-b;4,5-b′]dithiophene-2-carboxylate-(2-dimethyl-aminoethyl)-amide phosphoric acid salt], the “cytotoxicity against HL-60 (in words)” value in data set [7] (HL-60, summary of Table 2) is “the most potent one”. The pIC50 in data set [7] (setting [12]) was 7.30; in data set [1] (setting [8]), 7.22; in data set [2] (setting [9]), 8.00; in data set [3] (setting [10]), 8.00; in data set [4] (Homo sapiens, KBVIN, 72 h) it was 8.00; in data set [6] (setting [11]), 8.00. Further, in data set [5], the solubility is no less than 4000 µg/mL.
With `C[C@H](NC(=O)c1cc2c(s1)C(=O)c1ccsc1C2=O)C(=O)O` [XVI, (L)-2-{(4,8-Dioxo-4,8-dihydrobenzo-[1,2-b;4,5-b′]dithiophene-2-carbonyl)-amino}-propionic acid], the pIC50 in data set [7] (setting [12]) was 6.12.
In the case of `C[C@H](NC(=O)c1cc2c(s1)C(=O)c1ccsc1C2=O)C(=O)[O-].[Na+]` [XVI-Na], the pIC50 in data set [1] (setting [8]) is 5.75; in data set [2] (setting [9]), 6.29; in data set [3] (setting [10]) it was 6.77; in data set [4] (Homo sapiens, KBVIN, 72 h) it was 6.27; in data set [6] (setting [11]), 6.27. For the same compound, the solubility in data set [5] is no less than 3200 µg/mL.
